Laboratory results: patent publication US20140039044A1, “Hydroxylated Polymethoxyflavone Compositions” (WLLGEN, INC., priority 2006, published 2014)

Tests used:
Format in all cases: cell-based, human
AGS cells = assay: Apoptotic ratio by propidium iodide flow cytometry (AC50); details: Homo sapiens; AGS cells; read-out: Apoptosis-inducing AC50
Protocol: (§1) The human cancer cells (2×10^5) were cultured in 60-mm Petri dishes and incubated for 24 h. After treated with test compounds for 24 h, the cells were then harvested, washed with PBS resuspended in 200 μL of PBS, and fixed in 800 μL of iced 100% ethanol at −20° C. After being left to stand overnight, the cell pellets were collected by centrifugation, resuspended in 1 mL of hypotonic buffer (0.5% Triton X-100 in PBS and 0.5 μg/mL RNase) and incubated at 37° C. for 30 min. Next, 1 mL of propidium iodide solution (50 μg/mL) was added, and the mixture was allowed to stand on ice for 30 min. Fluorescence emitted from the propidium iodide-DNA complex was quantitated after excitation of the fluorescent dye by FACScan cytometry (Becton Dickinson, San Jose, Calif.).
(§2) 1 N PMF and 6 N PMF compositions containing hydroxylated PMFs, prepared as described in Section 8.3 above, 70% PMF OPE and 5,6,7,8,3′,4′-hexamethoxyflavone (nobiletin) were tested for antiproliferative activity and apoptosis-inducing activity in HL-60, AGS and COLO205 cells as described in Section 8.4 above. Antiproliferative and apoptosis-inducing activities were derived as IC50 values and AC50, values, respectively, where AC50 is the concentration required for 50% apoptosis.
(§3) The PMF compounds were assayed in vitro for cell growth inhibition and for their ability to induce apoptosis in various human cancer cells, including HL-60, AGS, COLO 205, and HT-29 cells, using methods described in Section 8.4 above. Antiproliferative (IC50) and apoptosis-inducing activity (AC50) of PMFs in the HL-60, AGS, COLO 205, and HT-29 cells are reported in Table 9, where *P<0.05, **P<0.01 and ***P<0.001 indicate statistically significant differences from the control group.

COLO205 cells = assay: as above; details: Homo sapiens, COLO 205; COLO205 cells; read-out: Apoptosis-inducing AC50
Protocol: as §1, §2, §3

HL-60 cells [1] = assay: as above; details: Homo sapiens; HL-60 cells; read-out: Apoptosis-inducing AC50
Protocol: as §1, §2, §3

HT-29 cells [2] = assay: as above; details: Homo sapiens, read-out: Apoptosis-inducing AC50
Protocol: as §1, §3

HL-60 cells [3] = assay: Cell cycle distribution by flow cytometry; details: 24 h; for Cell Cycle Distribution G0/G1 / Cell Cycle Distribution G2/M / Cell Cycle Distribution S: Table 10
Protocol: as §1
The effects of the hydrolyzed PMF-enriched compositions, nobiletin and 70% PMF OPE on cell cycle distribution were studied, following the procedures described in Section 8.4. Results for cell cycle distribution in HL-60 cells, COLO205 cells and AGS cells are provided in Table 5, Table 6 and Table 7, respectively. […] In HL-60 cells, G2/M arrest predominated in cells treated with 6N PMF concentrations ≧5 μM and with 1N PMF concentrations ≧25 μM.
(§4) Compounds A-K were evaluated in terms of their effects in arresting cell cycle progression by observing cell cycle phase distribution in cells treated with the compounds. Cells were treated with 5, 10, 25, 50, and 100 μM of one of compound A-K or DMSO (control) for 24 h and subjected to flow cytometric analysis after staining their DNA, as described above.

HT-29 cells [4] = assay: Cell cycle distribution by flow cytometry; details: for Cell Cycle Distribution G0/G1 / Cell Cycle Distribution G2/M / Cell Cycle Distribution S: 24 h
Protocol: as §1, §4
Similar cell cycle phase distribution studies were performed in AGS, COLO205, and HT-29 cells in response to individual PMFs, with results reported in Tables 11, 12 and 13, respectively.

COc1cc(-c2cc(=O)c3c(O)c(OC)c(OC)c(OC)c3o2)cc(OC)c1OC [E, 5-hydroxy-6,7,8,3′,4′,5′-hexamethoxyflavone]
AC50 (AGS cells): > 100 µM | AC50 (COLO205 cells): > 100 µM | AC50 (HL-60 cells [1]): > 100 µM | AC50 (HT-29 cells [2]): > 100 µM | Cell Cycle Distribution G0/G1 (HL-60 cells [3]; 5 μM): 40.16 ± 1.10 | Cell Cycle Distribution G2/M (HL-60 cells [3]; 5 μM): 6.01 ± 1.64 | Cell Cycle Distribution S (HL-60 cells [3]; 5 μM): 53.83 ± 0.54 | Cell Cycle Distribution G0/G1 (HL-60 cells [3]; 10 μM): 40.43 ± 2.14 | Cell Cycle Distribution G2/M (HL-60 cells [3]; 10 μM): 5.57 ± 1.17 | Cell Cycle Distribution S (HL-60 cells [3]; 10 μM): 54.01 ± 0.98 | Cell Cycle Distribution G0/G1 (HL-60 cells [3]; 25 μM): 41.35 ± 2.50 | Cell Cycle Distribution G2/M (HL-60 cells [3]; 25 μM): 6.27 ± 1.05 | Cell Cycle Distribution S (HL-60 cells [3]; 25 μM): 52.38 ± 1.46 | Cell Cycle Distribution G0/G1 (HL-60 cells [3]; 50 μM): 37.64 ± 1.09 | Cell Cycle Distribution G2/M (HL-60 cells [3]; 50 μM): 7.73 ± 0.62 | Cell Cycle Distribution S (HL-60 cells [3]; 50 μM): 54.64 ± 0.49 | Cell Cycle Distribution G0/G1 (HL-60 cells [3]; 100 μM): 42.95 ± 0.11 | Cell Cycle Distribution G2/M (HL-60 cells [3]; 100 μM): 7.27 ± 0.84 | Cell Cycle Distribution S (HL-60 cells [3]; 100 μM): 49.79 ± 0.95 | Cell Cycle Distribution G0/G1 (HT-29 cells [4]; 5 μM): 57.96 ± 0.21 | Cell Cycle Distribution G2/M (HT-29 cells [4]; 5 μM): 10.19 ± 0.07 | Cell Cycle Distribution S (HT-29 cells [4]; 5 μM): 31.85 ± 0.14 | Cell Cycle Distribution G0/G1 (HT-29 cells [4]; 10 μM): 57.86 ± 0.31 | Cell Cycle Distribution G2/M (HT-29 cells [4]; 10 μM): 10.01 ± 0.46 | Cell Cycle Distribution S (HT-29 cells [4]; 10 μM): 32.14 ± 0.78 | Cell Cycle Distribution G0/G1 (HT-29 cells [4]; 25 μM): 59.20 ± 0.06 | Cell Cycle Distribution G2/M (HT-29 cells [4]; 25 μM): 9.63 ± 0.69 | Cell Cycle Distribution S (HT-29 cells [4]; 25 μM): 31.18 ± 0.74 | Cell Cycle Distribution G0/G1 (HT-29 cells [4]; 50 μM): 58.95 ± 0.95 | Cell Cycle Distribution G2/M (HT-29 cells [4]; 50 μM): 9.26 ± 0.16 | Cell Cycle Distribution S (HT-29 cells [4]; 50 μM): 31.79 ± 1.12 | Cell Cycle Distribution G0/G1 (HT-29 cells [4]; 100 μM): 61.79 ± 1.47 | Cell Cycle Distribution G2/M (HT-29 cells [4]; 100 μM): 8.79 ± 1.23 | Cell Cycle Distribution S (HT-29 cells [4]; 100 μM): 29.42 ± 0.24

COc1cc(-c2cc(=O)c3c(OC)c(OC)c(OC)c(OC)c3o2)cc(OC)c1OC [F, 5,6,7,8,3′,4′,5′-heptamethoxyflavone, reference compound]
AC50 (AGS cells): > 100 µM | AC50 (COLO205 cells): > 100 µM | AC50 (HL-60 cells [1]): > 100 µM | AC50 (HT-29 cells [2]): > 100 µM | Cell Cycle Distribution G0/G1 (HL-60 cells [3]; 5 μM): 42.11 ± 0.37 | Cell Cycle Distribution G2/M (HL-60 cells [3]; 5 μM): 10.56 ± 1.16 | Cell Cycle Distribution S (HL-60 cells [3]; 5 μM): 47.34 ± 1.53 | Cell Cycle Distribution G0/G1 (HL-60 cells [3]; 10 μM): 48.35 ± 1.83 | Cell Cycle Distribution G2/M (HL-60 cells [3]; 10 μM): 10.59 ± 1.46 | Cell Cycle Distribution S (HL-60 cells [3]; 10 μM): 41.07 ± 0.37 | Cell Cycle Distribution G0/G1 (HL-60 cells [3]; 25 μM): 57.82 ± 1.51 | Cell Cycle Distribution G2/M (HL-60 cells [3]; 25 μM): 7.28 ± 1.54 | Cell Cycle Distribution S (HL-60 cells [3]; 25 μM): 34.90 ± 0.03 | Cell Cycle Distribution G0/G1 (HL-60 cells [3]; 50 μM): 60.39 ± 0.23 | Cell Cycle Distribution G2/M (HL-60 cells [3]; 50 μM): 8.44 ± 0.54 | Cell Cycle Distribution S (HL-60 cells [3]; 50 μM): 31.18 ± 0.30 | Cell Cycle Distribution G0/G1 (HL-60 cells [3]; 100 μM): 63.66 ± 2.33 | Cell Cycle Distribution G2/M (HL-60 cells [3]; 100 μM): 4.92 ± 0.46 | Cell Cycle Distribution S (HL-60 cells [3]; 100 μM): 31.43 ± 1.87 | Cell cycle arrest, in words (HL-60 cells [3]; 25-100 μM): significant G1 arrest | Cell Cycle Distribution G0/G1 (HT-29 cells [4]; 5 μM): 70.24 ± 0.52 | Cell Cycle Distribution G2/M (HT-29 cells [4]; 5 μM): 7.11 ± 0.17 | Cell Cycle Distribution S (HT-29 cells [4]; 5 μM): 22.66 ± 0.35 | Cell Cycle Distribution G0/G1 (HT-29 cells [4]; 10 μM): 76.34 ± 0.35 | Cell Cycle Distribution G2/M (HT-29 cells [4]; 10 μM): 7.06 ± 0.42 | Cell Cycle Distribution S (HT-29 cells [4]; 10 μM): 16.61 ± 0.06 | Cell Cycle Distribution G0/G1 (HT-29 cells [4]; 25 μM): 82.19 ± 0.16 | Cell Cycle Distribution G2/M (HT-29 cells [4]; 25 μM): 6.83 ± 0.61 | Cell Cycle Distribution S (HT-29 cells [4]; 25 μM): 10.98 ± 0.45 | Cell Cycle Distribution G0/G1 (HT-29 cells [4]; 50 μM): 88.64 ± 0.27 | Cell Cycle Distribution G2/M (HT-29 cells [4]; 50 μM): 6.25 ± 0.58 | Cell Cycle Distribution S (HT-29 cells [4]; 50 μM): 5.11 ± 0.31 | Cell Cycle Distribution G0/G1 (HT-29 cells [4]; 100 μM): 89.85 ± 0.13 | Cell Cycle Distribution G2/M (HT-29 cells [4]; 100 μM): 6.07 ± 0.06 | Cell Cycle Distribution S (HT-29 cells [4]; 100 μM): 4.10 ± 0.06 | Cell cycle arrest, in words (HT-29 cells [4]; 5-100 μM, 24 h exposure): significant accumulation of cells in G1 phase
